# Results: patent publication US7855166B2, “Sulfonylamino(thio)carbonyl compounds” (Bayer Cropscience GmbH, priority 2005, dated 2010)
# Key:
# [1] = tested on: weed plants such as Sinapis alba, Chrysanthemum segetum, Avena sativa, Stellaria media, Echinochloa crus-galli, Lolium multiflorum, Setaria viridis, Abutilon …; assay: Pre-emergence effect on weeds (greenhouse pot test, visual scoring); format: in vivo; conditions: applied pre-emergence at a rate of 0.3 kg or less of active substance per hectare; scored after 3 to 4 weeks in comparison to untreated controls
# [2] = tested on: weed plants such as Sinapis alba, Echinochloa crus-galli, Lolium multiflorum, Chrysanthemum segetum, Setaria viridis, Abutilon theophrasti, Amaranthus …; assay: Post-emergence effect on weeds (greenhouse pot test, visual scoring); format: in vivo; conditions: applied post-emergence (three-leaf stage) at a rate of 0.3 kg or less of active substance per hectare; scored after about 3 to 4 weeks in comparison to untreated controls
Compound,herbicidal action against weed plants (visual scoring of plant damage or emergence damage) [1],herbicidal action against weed plants (effect scored visually) [2]
CCCOc1nn(C(=O)NS(=O)(=O)c2ccc(CCC)cc2I)c(=O)n1C [Compound 1.878],very good herbidical action,very good herbicidal action
CCCc1ccc(S(=O)(=O)NC(=O)n2nc(OC(C)C)n(C)c2=O)c(I)c1 [Compound 1.879],very good herbidical action,very good herbicidal action
CCCc1ccc(S(=O)(=O)NC(=O)n2nc(OC)n(C3CC3)c2=O)c(I)c1 [Compound 1.880],very good herbidical action,very good herbicidal action
CCCc1ccc(S(=O)(=O)NC(=O)n2nc(OCC)n(C3CC3)c2=O)c(I)c1 [Compound 1.881],very good herbidical action,very good herbicidal action
CCCOc1nn(C(=O)NS(=O)(=O)c2ccc(CCC)cc2I)c(=O)n1C1CC1 [Compound 1.882],very good herbidical action,very good herbicidal action
CCCCc1ccc(S(=O)(=O)NC(=O)n2nc(OCC)n(C)c2=O)c(I)c1 [Compound 1.883],very good herbidical action,very good herbicidal action
CCCCc1ccc(S(=O)(=O)NC(=O)n2nc(OCCC)n(C)c2=O)c(I)c1 [Compound 1.884],very good herbidical action,very good herbicidal action
CCCCc1ccc(S(=O)(=O)NC(=O)n2nc(OC)n(C)c2=O)c(I)c1 [Compound 1.885],very good herbidical action,very good herbicidal action
CCCCc1ccc(S(=O)(=O)NC(=O)n2nc(OC)n(C3CC3)c2=O)c(I)c1 [Compound 1.886],very good herbidical action,very good herbicidal action
CCCCc1ccc(S(=O)(=O)NC(=O)n2nc(OCC)n(C3CC3)c2=O)c(I)c1 [Compound 1.887],very good herbidical action,very good herbicidal action
CCCCc1ccc(S(=O)(=O)NC(=O)n2nc(OCCC)n(C3CC3)c2=O)c(I)c1 [Compound 1.888],very good herbidical action,very good herbicidal action
CCCCc1ccc(S(=O)(=O)NC(=O)n2nc(OC(C)C)n(C)c2=O)c(I)c1 [Compound 1.889],very good herbidical action,very good herbicidal action
CCOc1nn(C(=O)NS(=O)(=O)c2ccc(C(F)(F)F)cc2I)c(=O)n1C [Compound 1.890],very good herbidical action,very good herbicidal action
CCOc1nn(C(=O)NS(=O)(=O)c2ccc(C(F)(F)F)cc2I)c(=O)n1C1CC1 [Compound 1.891],very good herbidical action,very good herbicidal action
O=C(NS(=O)(=O)c1ccc(C(F)(F)F)cc1I)n1nc(C2CC2)n(C2CC2)c1=O [Compound 1.892],very good herbidical action,very good herbicidal action
COc1nn(C(=O)NS(=O)(=O)c2ccc(C(F)(F)F)cc2I)c(=O)n1C [Compound 1.893],very good herbidical action,very good herbicidal action
CCCOc1nn(C(=O)NS(=O)(=O)c2ccc(C(F)(F)F)cc2I)c(=O)n1C [Compound 1.894],very good herbidical action,very good herbicidal action
CC(C)Oc1nn(C(=O)NS(=O)(=O)c2ccc(C(F)(F)F)cc2I)c(=O)n1C [Compound 1.895],very good herbidical action,very good herbicidal action
COc1nn(C(=O)NS(=O)(=O)c2ccc(C(F)(F)F)cc2I)c(=O)n1C1CC1 [Compound 1.896],very good herbidical action,very good herbicidal action
